Test results published in PubChem BioAssay AID1963860 (Molecular Pharmacology Branch, DTP, NCI, 2024).

Tested on: CN0375-F725-PDC KRAS spheroid viability
Test: Anticancer human tumor CN0375-F725-PDC patient-derived colon carcinoma cell line growth inhibition [KRAS2]
Details: spheroids with HUVEC and MSC; for viability, T/C: stronger effect = lower value
Procedure, shortened: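 KRAS-mutant tumor cells were grown as spheroids with HUVEC endothelial cells and human MSCs as stroma. Targeted agents were tested alone and with KRAS pathway inhibitors. Doses started at or near clinical Cmax, or 10 microM, descending half-log.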

[1] = curve of first compound, second compound 0.1 µM
[2] = curve of first compound, second compound 0.316 µM
[3] = curve of first compound, second compound 1 µM
[4] = curve of first compound, second compound 3.16 µM
[5] = curve of first compound, second compound 10 µM
[6] = second compound 0.1 µM, first compound 0.01 µM
[7] = second compound 0.1 µM, first compound 0.0316 µM
[8] = second compound 0.1 µM, first compound 0.1 µM
[9] = second compound 0.1 µM, first compound 0.316 µM
[10] = second compound 0.1 µM, first compound 1 µM
[11] = second compound 0.316 µM, first compound 0.01 µM
[12] = second compound 0.316 µM, first compound 0.0316 µM
[13] = second compound 0.316 µM, first compound 0.1 µM
[14] = second compound 0.316 µM, first compound 0.316 µM
[15] = second compound 0.316 µM, first compound 1 µM
[16] = second compound 1 µM, first compound 0.01 µM
[17] = second compound 1 µM, first compound 0.0316 µM
[18] = second compound 1 µM, first compound 0.1 µM
[19] = second compound 1 µM, first compound 0.316 µM
[20] = second compound 1 µM, first compound 1 µM
[21] = second compound 3.16 µM, first compound 0.01 µM
[22] = second compound 3.16 µM, first compound 0.0316 µM
[23] = second compound 3.16 µM, first compound 0.1 µM
[24] = second compound 3.16 µM, first compound 0.316 µM
[25] = second compound 3.16 µM, first compound 1 µM
[26] = second compound 10 µM, first compound 0.01 µM
[27] = second compound 10 µM, first compound 0.0316 µM
[28] = second compound 10 µM, first compound 0.1 µM
[29] = second compound 10 µM, first compound 0.316 µM
[30] = second compound 10 µM, first compound 1 µM
[31] = second compound 0.1 µM, first compound 0.00316 µM
[32] = second compound 0.316 µM, first compound 0.00316 µM
[33] = second compound 1 µM, first compound 0.00316 µM
[34] = second compound 3.16 µM, first compound 0.00316 µM
[35] = second compound 10 µM, first compound 0.00316 µM
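Note: spheroids exposed to agents for 7 days.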

Row | SMILES | IC50 [1] [nM] | IC50 [2] [nM] | IC50 [3] [nM] | IC50 [4] [nM] | IC50 [5] [nM] | viability, T/C [6] [%] | viability, T/C [7] [%] | viability, T/C [8] [%] | viability, T/C [11] [%] | viability, T/C [12] [%] | viability, T/C [13] [%] | viability, T/C [16] [%] | viability, T/C [17] [%] | viability, T/C [18] [%] | viability, T/C [21] [%] | viability, T/C [22] [%] | viability, T/C [23] [%] | viability, T/C [26] [%] | viability, T/C [27] [%] | viability, T/C [28] [%] | further results
1 | CC(=O)OC12COC1CC(O)C1(C)C(=O)C(O)C3=C(C)C(OC(=O)C(O)C(NC(=O)OC(C)(C)C)c4ccccc4)CC(O)(C(OC(=O)c4ccccc4)C21)C3(C)C (configuration not stated) + CC1OCC2(CCN(c3cnc(Sc4ccnc(N)c4Cl)c(N)n3)CC2)C1N | > 3160 | > 3160 | > 3160 | > 3160 | > 3160 | 93.5 | 93.2 | 83.8 | 91.5 | 88.4 | 79.4 | 95.6 | 102 | 87.5 | 77.6 | 74.8 | 68 | 73.9 | 70.1 | 67.2 | viability, T/C [9]: 79.1%; viability, T/C [10]: 79.6%; viability, T/C (second compound 0.1 µM, first compound 3.16 µM): 71.5%; viability, T/C [14]: 74.7%; viability, T/C [15]: 71.8%; viability, T/C (second compound 0.316 µM, first compound 3.16 µM): 71.8%; viability, T/C [19]: 83.8%; viability, T/C [20]: 80.7%; viability, T/C (second compound 1 µM, first compound 3.16 µM): 76.7%; viability, T/C [24]: 64%; viability, T/C [25]: 64.5%; viability, T/C (second compound 3.16 µM, first compound 3.16 µM): 58.6%; viability, T/C [29]: 59.8%; viability, T/C [30]: 57.2%; viability, T/C (second compound 10 µM, first compound 3.16 µM): 53.2%
2 | COc1cc(OC)cc(N(CCNC(C)C)c2ccc3ncc(-c4cnn(C)c4)nc3c2)c1 | – | – | – | – | – | – | – | – | – | – | – | – | – | – | – | – | – | – | – | – | viability, T/C (compound 0.0316 µM): 94.3% [middle of 5 runs]; viability, T/C (compound 0.1 µM): 91.7% [middle of 5 runs]; viability, T/C (compound 0.316 µM): 92.1% [middle of 5 runs]; viability, T/C (compound 1 µM): 103% [middle of 5 runs]; viability, T/C (compound 3.16 µM): 82.9% [middle of 5 runs]; viability, T/C (compound 10 µM): 2.52% [middle of 5 runs]; IC50 (curve of compound): 5.06 µM [middle of 4 runs]
3 | CCN1CCN(Cc2ccc(Nc3ncc(F)c(-c4cc(F)c5nc(C)n(C(C)C)c5c4)n3)nc2)CC1 + CC1OCC2(CCN(c3cnc(Sc4ccnc(N)c4Cl)c(N)n3)CC2)C1N | > 1000 | > 1000 | > 1000 | > 1000 | > 1000 | 83.3 | 81.4 | 88.2 | 82.2 | 67.3 | 74.6 | 80 | 72.6 | 75.2 | 74.8 | 68.1 | 66.6 | 69.3 | 60.4 | 61.1 | viability, T/C [31]: 92.9%; viability, T/C [9]: 95.7%; viability, T/C [10]: 92.8%; viability, T/C [32]: 84.9%; viability, T/C [14]: 89.3%; viability, T/C [15]: 84.9%; viability, T/C [33]: 82.3%; viability, T/C [19]: 82.9%; viability, T/C [20]: 81.7%; viability, T/C [34]: 72.2%; viability, T/C [24]: 75.1%; viability, T/C [25]: 68.8%; viability, T/C [35]: 65.8%; viability, T/C [29]: 70.4%; viability, T/C [30]: 53.3%
4 | CN(C)C/C=C/C(=O)Nc1cc2c(Nc3ccc(F)c(Cl)c3)ncnc2cc1O[C@H]1CCOC1 + CC1OCC2(CCN(c3cnc(Sc4ccnc(N)c4Cl)c(N)n3)CC2)C1N | > 100 | > 100 | > 100 | > 100 | > 100 | 85.9 | 80.4 | 80.4 | 86.9 | 83.2 | 75.7 | 85.5 | 83.5 | 77.7 | 71 | 71.6 | 72.3 | 84.6 | 80.6 | 82.8 | viability, T/C (second compound 0.1 µM, first compound 0.000316 µM): 95.9%; viability, T/C (second compound 0.1 µM, first compound 0.001 µM): 87%; viability, T/C [31]: 87.5%; viability, T/C (second compound 0.316 µM, first compound 0.000316 µM): 93.6%; viability, T/C (second compound 0.316 µM, first compound 0.001 µM): 87.7%; viability, T/C [32]: 84%; viability, T/C (second compound 1 µM, first compound 0.000316 µM): 94.8%; viability, T/C (second compound 1 µM, first compound 0.001 µM): 97.5%; viability, T/C [33]: 88.3%; viability, T/C (second compound 3.16 µM, first compound 0.000316 µM): 73.9%; viability, T/C (second compound 3.16 µM, first compound 0.001 µM): 77.7%; viability, T/C [34]: 73.7%; viability, T/C (second compound 10 µM, first compound 0.000316 µM): 90.3%; viability, T/C (second compound 10 µM, first compound 0.001 µM): 96%; viability, T/C [35]: 88%
5 | CCN1CCN(Cc2ccc(Nc3ncc(F)c(-c4cc(F)c5nc(C)n(C(C)C)c5c4)n3)nc2)CC1 + COc1cc2nc(C)nc(NC(C)c3cc(N)cc(C(F)(F)F)c3)c2cc1OC1CCOC1 | > 1000 | > 1000 | > 1000 | > 1000 | < 3.16 | 89.7 | 81.9 | 88.1 | 91.2 | 79.2 | 82 | 85.3 | 79.3 | 81.6 | 79.9 | 71.3 | 70.7 | 14.5 | 13.4 | 15.4 | viability, T/C [31]: 96.4%; viability, T/C [9]: 90.7%; viability, T/C [10]: 94.7%; viability, T/C [32]: 93%; viability, T/C [14]: 92.8%; viability, T/C [15]: 78%; viability, T/C [33]: 91.1%; viability, T/C [19]: 86.5%; viability, T/C [20]: 83%; viability, T/C [34]: 84.3%; viability, T/C [24]: 71.7%; viability, T/C [25]: 49.5%; viability, T/C [35]: 14.6%; viability, T/C [29]: 6.49%; viability, T/C [30]: 0.9%
6 | CCN1CCN(Cc2ccc(Nc3ncc(F)c(-c4cc(F)c5nc(C)n(C(C)C)c5c4)n3)nc2)CC1 + CNCc1ccccc1-c1csc(C(C)Nc2nc(C)nc3cc(OC)c(OC)cc23)c1 | > 1000 | > 1000 | 32.8 | < 3.16 | < 3.16 | 91.5 | 92.4 | 89.1 | 88.8 | 78.7 | 79.1 | 65.7 | 40.5 | 51.9 | 0.97 | 0.25 | 0.28 | 0.19 | 0.51 | 0.3 | viability, T/C [31]: 102%; viability, T/C [9]: 102%; viability, T/C [10]: 86.9%; viability, T/C [32]: 92.6%; viability, T/C [14]: 81.7%; viability, T/C [15]: 58.9%; viability, T/C [33]: 76%; viability, T/C [19]: 9.53%; viability, T/C [20]: 10.2%; viability, T/C [34]: 0.86%; viability, T/C [24]: 0.37%; viability, T/C [25]: 0.51%; viability, T/C [35]: 0.33%; viability, T/C [29]: 0.17%; viability, T/C [30]: 0.4%
